From US10434101B2, “Heterocyclic compounds and uses thereof” (Celgene CAR LLC, priority 2010, dated 2019) come the findings set out here.

One may read the GI50 as the concentration that inhibits growth by half.

In one experiment the test system is A431 cells (WT EGFR). As to the kind of experiment: Cell proliferation (CellTiter Glo, 72 hr) in A431 cells. The conditions noted are these: Homo sapiens, A-431; A431 cells, 72 hr; read-out: WT EGFR GI50. Type of experiment: cell-based. As to the method: (§1) A431 human epidermoid carcinoma, H1975 human NSCLC and HCC827 human NSCLC adenocarcinoma cells were obtained from the American Type Culture Center (Manassas, Va.). A431 cells were grown in DMEM (Invitrogen, Carlsbad, Calif.) supplemented with 10% FBS (HyClone, South Logan, Utah) and 1% Penicillin-Streptomycin (P/S, Lonza, Walkersville, Md.).
(§2) Cells were plated in Growth Media supplemented with 5% FBS and 1% P/S at a density of 3,000 cells per well in 96 well tissue culture plates (Corning). […] Growth inhibition (GI50) values were determined by Graph Pad Prism.
On the technique in general: Cellular ATP, detected with luciferase, serves as a proxy for viable cell number.

Experiment [1] relates to HCC827 cells (EGFR delE746-A750). The experiment is described as follows: Cell proliferation (CellTiter Glo, 72 hr) in HCC827 cells. The conditions noted are these: Homo sapiens; HCC827 cells, 72 hr; read-out: HCC827 GI50. In kind it is cell-based, human. As to the method:
as §1, §2

For experiment [2], the system named is H1975 cells (EGFR L858R/T790M). The experiment is described as follows: Cell proliferation (CellTiter Glo, 72 hr) in H1975 cells. Type of experiment: cell-based, human. As to conditions: Homo sapiens, NCI-H1975; H1975 cells, 72 hr; read-out: H1975 GI50. As to the method:
as §1, §2

Experiment [3] addresses EGFR double mutation L858R/T790M (H1975 cells) (Homo sapiens (Human), UniProt P00533, L858R/T790M). The experiment is described as follows: Phospho-EGFR signaling (immunoblotting, 1 hr) in H1975 cells. Type of experiment: cell-based. As to conditions: signaling EC50 WT (A431) / H1975. How it is done:
as §1
All primary antibodies were obtained from Cell Signaling (Danvers, Mass.) and used at 1:1000. Secondary antibodies were used at 1:10,000. Goat anti-mouse IgG IRDye 800CW antibody was obtained from LiCor Biosciences (Lincoln, Nebr.) and goat anti-rabbit IgG Alexa Fluor 680 was obtained from Invitrogen.
Cells were grown in 12-well plates (Corning, Coring, N.Y.) to 90% confluence and then incubated in low-serum (0.1% FBS) media for 16-18 hr. […] A431 cells were then stimulated with 50 ng/ml EGF (Peprotech, Rocky Hill, N.J.) for 15 min. After treatment, cell monolayers were washed with cold PBS (Invitrogen) and immediately lysed by scrapping into 60 uL cold Cell Extraction Buffer (Invitrogen) supplemented with Complete Protease inhibitors (Roche, Indianapolis, Ind.) and PhosphoSTOP (Roche) phosphatase inhibitors.
Phospho-protein signals were quantitated using Odyssey Infrared Imaging (Li-Cor Biosciences).
To assess phosphor-EGFR signaling, blots were probed with rabbit anti-Phospho-EGFR (Y1068) and mouse total anti-EGFR antibodies. Phospho-EGFR signal was normalized to total EGFR expression for each sample. […] Normalized data was fitted using a sigmoidal curve analysis program (Graph Pad Prism version 5) with variable Hill slope to determine the EC50 values.
(Immunoblotting shows a protein as a band on a membrane.)

On to `C=CC(=O)Nc1cccc(Oc2nc(Nc3ccc(N4CCN(S(C)(=O)=O)CC4)cc3OC)ncc2C(F)(F)F)c1` [Compound I-22, N-(3-(2-(2-methoxy-4-(4-(methylsulfonyl)piperazin-1-yl)phenylamino)-5-(trifluoromethyl)pyrimidin-4-yloxy)phenyl)acrylamide], for which the GI50 is over 1000 nM in the experiment on A431 cells (WT EGFR), 10 to 100 nM in experiment [1] and 100 to 500 nM in experiment [2]. Further, the “Ratio WT/mutant (H1975)” value in experiment [3] is over 35.

For `C=CC(=O)Nc1cccc(Nc2nc(Nc3ccc(N4CCN(C(C)=O)[C@H](C(=O)OC)C4)cc3OC)ncc2C(F)(F)F)c1` [Compound I-48], the GI50 was over 1000 nM in the experiment on A431 cells (WT EGFR), 10 to 100 nM in experiment [1] and 10 to 100 nM in experiment [2]. The “Ratio WT/mutant (H1975)” value in experiment [3] was over 50.

In the case of `C=CC(=O)Nc1cccc(Nc2nc(Nc3ccc(N4CCCN(C(=O)OC(C)(C)C)CC4)cc3OC)ncc2C(F)(F)F)c1` [Compound I-44, tert-butyl 4-(4-(4-(3-acrylamidophenylamino)-5-(trifluoromethyl)pyrimidin-2-ylamino)-3-methoxyphenyl)-1,4-diazepane-1-carboxylate], the GI50 was over 1000 nM with A431 cells (WT EGFR), 500 to 1000 nM in experiment [1] and 500 to 1000 nM in experiment [2]. In addition, the “Ratio WT/mutant (H1975)” value in experiment [3] was over 5.

Turning to `C=CC(=O)Nc1cccc(Nc2nc(Nc3ccc(N4CCN(C(C)=O)CC4)cc3OC)ncc2Br)c1` [Compound I-40, N-(3-(2-(4-(4-acetylpiperazin-1-yl)-2-methoxyphenylamino)-5-bromopyrimidin-4-ylamino)phenyl)acrylamide], the values for the GI50 (in the experiment on A431 cells (WT EGFR); in experiment [1]; in experiment [2]) were 500 to 1000 nM, 10 to 100 nM and 100 to 500 nM, respectively. In addition, the “Ratio WT/mutant (H1975)” value in experiment [3] was over 1.

As for `C=CC(=O)Nc1cccc(Nc2nc(Nc3ccc(N4CCN(C(=O)CO)CC4)cc3OC)ncc2Cl)c1` [Compound I-12, N-(3-(5-chloro-2-(4-(4-(2-hydroxyacetyl)piperazin-1-yl)-2-methoxyphenylamino)pyrimidin-4-ylamino)phenyl)acrylamide], the values for the concentration for 50% growth inhibition (GI50) (in the experiment with A431 cells (WT EGFR); in experiment [1]; in experiment [2]) were 500 to 1000 nM, 10 to 100 nM and 100 to 500 nM, respectively. For the same compound, in experiment [3], the “Ratio WT/mutant (H1975)” value is reported as over 1.

With `C=CC(=O)Nc1cccc(Oc2nc(Nc3ccc(N4CCOCC4)cc3OC)ncc2C(F)(F)F)c1` [Compound I-1, N-(3-(2-(2-methoxy-4-morpholinophenylamino)-5-(trifluoromethyl)pyrimidin-4-yloxy)phenyl)acrylamide], the GI50 is over 1000 nM in the experiment on A431 cells (WT EGFR), 10 to 100 nM in experiment [1] and 10 to 100 nM in experiment [2]. Moreover, in experiment [3], the “Ratio WT/mutant (H1975)” value is reported as over 50.

For `C=CC(=O)Nc1cccc(Oc2nc(Nc3ccc(N4CCN(C(=O)NC)CC4)cc3OC)ncc2C(F)(F)F)c1` [Compound I-21, 4-(4-(4-(3-acrylamidophenoxy)-5-(trifluoromethyl)pyrimidin-2-ylamino)-3-methoxyphenyl)-N-methylpiperazine-1-carboxamide], the GI50 with A431 cells (WT EGFR) lay in the range of 500 to 1000 nM; in experiment [1], 10 to 100 nM; in experiment [2], 100 to 500 nM. In addition, in experiment [3], the “Ratio WT/mutant (H1975)” value is reported as over 5.

`C=CC(=O)Nc1cccc(Nc2nc(Nc3ccc(N4CCN(C(=O)CO)CC4)cc3OC)ncc2C(F)(F)F)c1` [Compound I-6, N-(3-(2-(4-(4-(2-hydroxyacetyl)piperazin-1-yl)-2-methoxyphenylamino)-5-(trifluoromethyl)pyrimidin-4-ylamino)phenyl)acrylamide]: the values for the GI50 (with A431 cells (WT EGFR); in experiment [1]; in experiment [2]) were 500 to 1000 nM, 10 to 100 nM and 10 to 100 nM, respectively. Moreover, the “Ratio WT/mutant (H1975)” value in experiment [3] was over 20.

As to `C=CC(=O)Nc1cccc(Oc2nc(Nc3ccc(N4CCN(S(C)(=O)=O)CC4)cc3OC)ncc2Cl)c1` [Compound I-26, N-(3-(5-chloro-2-(2-methoxy-4-(4-(methylsulfonyl)piperazin-1-yl)phenylamino)pyrimidin-4-yloxy)phenyl)acrylamide], the GI50 in the experiment on A431 cells (WT EGFR) was over 1000 nM; in experiment [1] it was 10 to 100 nM; in experiment [2], over 1000 nM. In addition, the “Ratio WT/mutant (H1975)” value in experiment [3] was over 40.

Turning to `C=CC(=O)Nc1cccc(Oc2nc(Nc3ccc(N4CCN(C(=O)CO)CC4)cc3OC)ncc2C(F)(F)F)c1` [Compound I-11, N-(3-(2-(4-(4-(2-hydroxyacetyl)piperazin-1-yl)-2-methoxyphenylamino)-5-(trifluoromethyl)pyrimidin-4-yloxy)phenyl)acrylamide], the GI50 in the experiment on A431 cells (WT EGFR) was over 1000 nM; in experiment [1] it was 10 to 100 nM; in experiment [2], 100 to 500 nM. Besides, the “Ratio WT/mutant (H1975)” value in experiment [3] is reported as over 15.

With `C=CC(=O)Nc1cccc(Oc2nc(Nc3ccc(N4CCN(C(=O)CO)CC4)cc3OC)ncc2Cl)c1` [Compound I-3, N-(3-(5-chloro-2-(4-(4-(2-hydroxyacetyl)piperazin-1-yl)-2-methoxyphenylamino)pyrimidin-4-yloxy)phenyl)acrylamide], the GI50 was over 1000 nM in the experiment on A431 cells (WT EGFR), 10 to 100 nM in experiment [1] and 100 to 500 nM in experiment [2]. In experiment [3], the “Ratio WT/mutant (H1975)” value is over 5.

Regarding `C=CC(=O)Nc1cccc(Oc2nc(Nc3ccc(N4CCOCC4)cc3OC)ncc2Cl)c1` [Compound I-5, N-(3-(5-chloro-2-(2-methoxy-4-morpholinophenylamino)pyrimidin-4-yloxy)phenyl)acrylamide], the GI50 in the experiment on A431 cells (WT EGFR) is over 1000 nM; in experiment [1], 10 to 100 nM; in experiment [2], 100 to 500 nM. For the same compound, the “Ratio WT/mutant (H1975)” value in experiment [3] is over 30.

`C=CC(=O)Nc1cccc(Nc2nc(Nc3ccc(N4CCN(S(C)(=O)=O)CC4)cc3OC)ncc2Cl)c1` [Compound I-41, N-(3-(5-chloro-2-(2-methoxy-4-(4-(methylsulfonyl)piperazin-1-yl)phenylamino)pyrimidin-4-ylamino)phenyl)acrylamide]: the GI50 was over 1000 nM in the experiment with A431 cells (WT EGFR), 10 to 100 nM in experiment [1] and 100 to 500 nM in experiment [2]. Besides, the “Ratio WT/mutant (H1975)” value in experiment [3] was over 1.

Regarding `C=CC(=O)Nc1cccc(Nc2nc(Nc3ccc(N4CCCN(C(C)=O)CC4)cc3OC)ncc2C(F)(F)F)c1` [Compound I-7, N-(3-(2-(4-(4-acetyl-1,4-diazepan-1-yl)-2-methoxyphenylamino)-5-(trifluoromethyl)pyrimidin-4-ylamino)phenyl)acrylamide], the GI50 in the experiment with A431 cells (WT EGFR) was over 1000 nM; in experiment [1], 100 to 500 nM; in experiment [2], 100 to 500 nM. The “Ratio WT/mutant (H1975)” value in experiment [3] is recorded as over 5.
